Tests used:
[1] = tested on: G. turnbulli; conditions: 0.15 mg/l alone (daily water changes)
Experimental: (§1) Efficacy of treatments in all trials was assessed using the following equation: Et=(L0−Lt)/L0 for Lt<L0, and ΔEt=0 for Lt>L0. Where • L0=parasite load at start of treatment • Lt=parasite load at end of treatment and • Et=efficacy of treatment at time t.

[2] = tested on: Gyrodactylus turnbulli infections on guppies; assay: Allyl disulphide carefully applied: high dose 10 min exposure, followed by low dose 1 h exposure; type: in vivo; conditions: high dose 10 min exposure, followed by low dose 1 h exposure
[3] = tested on: G. turnbulli; assay: Trial 2: single parasite, single fish, low dose, 7 day treatment; efficacy of treatments; type: in vivo
Experimental: as §1
All data were analysed in Minitab vs. 15.

[4] = tested on: single guppies each infected with 2-200 G. turnbulli; assay: Host mortality in Trial 2
Experimental: They were fed on a mixture of live food (Daphnia and Artemia spp.) and Aquarian fish flakes at least twice daily and were maintained at 25±1° C. with a 12 h dark:12 h light cycle.
On D1 (day 1) and D8 (day 8) the number of parasites and their location on the host were recorded by screening fish anaesthetised with 0.02% MS222 using a stereo-microscope and cold light illumination.
In a second trial, single guppies (n=115) each infected with 2-200 G. turnbulli were maintained as in Trial 1 and received treatments of either allyl disulphide, Pimafix®, Melafix® or a Pimafix®/Melafix® combination.

SMILES	efficacy at removing parasites (in words) [1]	efficacy (in words) [2]	efficacy (in words) ([3]; Trial 2, single parasite, single fish, low dose, 7 day treatment)	efficacy (in words) ([3]; applied at a low dose, comparable to applications used in the aquarium trade)	increase of host mortality compared to the control [4]	Host mortalities (%) Trial 2 ([4]; single guppies, 7 day treatment)
c1ccc([C@H]2CN3CCSC3=N2)cc1 [Levamisole, levamisole]	not effective at removing parasites	–	–	–	–	–
C=CCSSCC=C [Allyl disulphide, allyl disulphide]	–	effective only when carefully applied	not effective	not effective	15%	50%
